# Read-outs that look alike come from different tables or passages of the source.
# What was measured:
# [1] = Stability in rat plasma under different storage conditions; assay type: in vitro ADME; conditions: for Stability RE (%), 4°C / Stability RE (%), Room temperature / Stability RE (%), Three freeze-thaw / Stability RE (%), −80°C: rat plasma; for Stability RE (%), 4°C: 4°C (24 h); for Stability RE (%), Room temperature: room temperature (4 h); for Stability RE (%), −80°C: −80°C long-term storage; for Stability in rat plasma: short-term and long-term storage conditions
# Description: The stability of the method was assessed through the determination of low, medium and high concentration rat plasma quality control samples under various storage conditions. […] The stability of the samples was determined by the precision of measurement results, and the samples were considered stable when the CV% and RE% were both below 15%.
# [2] = Drug interaction study: pharmacokinetics of firmonertinib and AST-5902 in rats with or without nirmatrelvir and ritonavir (paxlovid); assay type: in vivo, Sprague-Dawley (SD) rats; conditions: for AUC(0-inf) / AUC(0-t) / Cmax / Tmax / half-life / CL/F / MRT last / MRT inf / Vd/F: male, Sprague-Dawley, rat, plasma, po, 7.2 mg/kg, rat plasma; for CL/F: read-out: CLz/F (converted); for MRT last: read-out: MRT(0-t); for MRT inf: read-out: MRT(0-∞); for Vd/F: read-out: Vz/F; for Difference in main pharmacokinetic data between single-dose and long-term nirmatrelvir and ritonavir groups: P > 0.05
# Description: The experimental animals for pharmacokinetics were eighteen male Sprague-Dawley (SD) rats (6–8 weeks old), weighing 180–220 g, purchased from Beijing Vital River Laboratory Animal Technology Co., Ltd. All animal-related experimental operations and care were performed in accordance with the Guide for the Care and Use of Laboratory Animals and were approved by the Animal Research Ethics Committee of Wenzhou Medical University (wydw2022-0184). All SD rats were kept in an SPF animal laboratory and were provided with adequate feed and water until all rats reached the required body weight for the experiment. […] Eighteen SD rats were randomly and equally divided into three groups of six rats each. Group C rats (long-term administration group) were given 55 mg/kg nirmatrelvir and 20 mg/kg ritonavir by gavage every 12 h for 5 days. Groups B (single dose administration group) and A (control group) were also given the same amount of 0.5% CMC-Na every 12 h for 5 days. Prior to the pharmacokinetic experiments, all rats were fasted for 12 h, but drinking water was not prohibited. On the day of the experiment, 55 mg/kg nirmatrelvir and 20 mg/kg ritonavir were given once by gavage to rats in group B and group C. The same dose of 0.5% CMC-Na was given to group A rats. […] Blood was collected using heparin lithium-anticoagulant tubes and then centrifuged for 10 min at 13,000 rpm at 4°C. Subsequently, the upper plasma fraction was transferred to a clean centrifuge tube and placed in a −80°C refrigerator for storage until detection.
# The pharmacokinetic parameters of three groups were analyzed by single factor analysis of variance using SPSS 28.0 software. A p value of less than 0.05 were considered significant difference between the two groups.
# [3] = set-up: method as in Boosman et al., 2022; conditions: ref Boosman et al., 2022; cited from earlier work
# CYP3A4 = tested on: CYP3A4; set-up: method as in Liu et al., 2020; conditions: ref Liu et al., 2020, cited from earlier work
# [4] = set-up: method as in Zhu et al., 2021; conditions: therapeutic doses of rifampicin (strong CYP3A4 inducer); clinical study; ref Zhu et al., 2021; cited from earlier work
# [5] = set-up: method as in Heng et al., 2021; conditions: itraconazole (CYP3A4 inhibitor); clinical study; ref Heng et al., 2021; cited from earlier work
# [6] = ref Nieminen et al., 2010; cited from earlier work
# [7] = set-up: method as in earlier work; conditions: patients after organ transplantation, ref Prikis and Cameron, 2022, Liu et al., 2023, Michael et al.; cited from earlier work
# [8] = Group A control: single 7.2 mg/kg firmonertinib by gavage alone
# [9] = Group B: single dose 55 mg/kg nirmatrelvir and 20 mg/kg ritonavir, then 7.2 mg/kg firmonertinib by gavage
# [10] = Group C: 5 days twice a day 55 mg/kg nirmatrelvir and 20 mg/kg ritonavir, then 7.2 mg/kg firmonertinib by gavage
# [11] = rats, long-term nirmatrelvir and ritonavir vs firmonertinib monotherapy group
# [12] = rats, single dose nirmatrelvir and ritonavir vs firmonertinib monotherapy group
# [13] = rats, long-term (5 days) nirmatrelvir and ritonavir vs firmonertinib monotherapy group
smiles,measurement,setting,value
C=CC(=O)Nc1cc(Nc2nccc(-c3cn(C)c4ccccc34)n2)c(OCC(F)(F)F)nc1N(C)CCNC [AST-5902],"Stability RE (%), 4°C","[1]; AST-5902 table, 0.2 ng/mL",−1.94%
same,"Stability RE (%), Room temperature","[1]; AST-5902 table, 0.2 ng/mL",4.37%
same,"Stability RE (%), Three freeze-thaw","[1]; AST-5902 table, 0.2 ng/mL",1.93%
same,"Stability RE (%), −80°C","[1]; AST-5902 table, 0.2 ng/mL",0.97%
same,"Stability RE (%), 4°C","[1]; AST-5902 table, 5 ng/mL",−1.36%
same,"Stability RE (%), Room temperature","[1]; AST-5902 table, 5 ng/mL",1.25%
same,"Stability RE (%), Three freeze-thaw","[1]; AST-5902 table, 5 ng/mL",5.50%
same,"Stability RE (%), −80°C","[1]; AST-5902 table, 5 ng/mL",3.06%
same,"Stability RE (%), 4°C","[1]; AST-5902 table, 40 ng/mL",0.00%
same,"Stability RE (%), Room temperature","[1]; AST-5902 table, 40 ng/mL",0.31%
same,"Stability RE (%), Three freeze-thaw","[1]; AST-5902 table, 40 ng/mL",−0.91%
same,"Stability RE (%), −80°C","[1]; AST-5902 table, 40 ng/mL",−0.53%
same,Stability in rat plasma,[1],remain stable
same,AUC(0-inf),[2]; [8],405 ± 60.4 ng·h/mL
same,AUC(0-t),[2]; [8],387 ± 58.2 ng·h/mL
same,Cmax,[2]; [8],39 ± 2.46 ng/mL
same,Tmax,[2]; [8],5.33 ± 1.03 h
same,half-life,[2]; [8],296 ± 58.8 min
same,CL/F,[2]; [8],302 mL/min/kg
same,MRT last,[2]; [8],8.37 ± 0.39 h
same,MRT inf,[2]; [8],9.35 ± 0.4 h
same,Vd/F,[2]; [8],129 ± 35.5 L/kg
same,AUC(0-inf),[2]; [9],185 ± 147 ng·h/mL
same,AUC(0-t),[2]; [9],122 ± 15 ng·h/mL
same,Cmax,[2]; [9],9.79 ± 1.7 ng/mL
same,Tmax,[2]; [9],8.33 ± 2.94 h
same,half-life,[2]; [9],368 ± 259 min
same,CL/F,[2]; [9],851 mL/min/kg
same,MRT last,[2]; [9],8.94 ± 0.62 h
same,MRT inf,[2]; [9],8.73 ± 2.41 h
same,Vd/F,[2]; [9],362 ± 62.9 L/kg
same,AUC(0-inf),[2]; [10],125 ± 13.2 ng·h/mL
same,AUC(0-t),[2]; [10],122 ± 12.8 ng·h/mL
same,Cmax,[2]; [10],10.2 ± 1.42 ng/mL
same,Tmax,[2]; [10],8.67 ± 1.63 h
same,half-life,[2]; [10],219 ± 34.8 min
same,CL/F,[2]; [10],969 mL/min/kg
same,MRT last,[2]; [10],9.22 ± 0.19 h
same,MRT inf,[2]; [10],9.7 ± 0.33 h
same,Vd/F,[2]; [10],306 ± 56.7 L/kg
same,Difference in main pharmacokinetic data between single-dose and long-term nirmatrelvir and ritonavir groups,[2]; rats,no significant differences
same,AUC(0-∞) of AST-5902 decreased by,[2]; [11],70%
same,CLz/F of AST-5902 increased by,[2]; [11],3.2 times
same,Cmax of AST-5902 decreased by,[2]; [11],74%
same,Tmax of AST-5902 increased by,[2]; [11],1.62 times
same,Vz/F of AST-5902 increased by,[2]; [11],2.36 times
same,AUC(0-∞) of AST-5902 decreased by,[2]; [12],55%
same,CLz/F of AST-5902 increased by,[2]; [12],2.81 times
same,Cmax of AST-5902 decreased by,[2]; [12],75%
same,Tmax of AST-5902 increased by,[2]; [12],1.56 times
same,Vz/F of AST-5902 increased by,[2]; [12],2.79 times
same,AUC(0-t) of AST-5902 decreased by,"[2]; rats, single-dose and long-term nirmatrelvir and ritonavir groups vs firmonertinib monotherapy group",69%
C#Cc1cccc(Nc2ncnc3cc(OCCOC)c(OCCOC)cc23)c1 [erlotinib],Pharmacokinetic exposure of 75 mg erlotinib orally with ritonavir versus 150 mg erlotinib orally,[3],comparable
C=CC(=O)Nc1cc(Nc2nccc(-c3cn(C)c4ccccc34)n2)c(OCC(F)(F)F)nc1N(C)CCN(C)C [firmonertinib],"Stability RE (%), 4°C",[1]; 0.3 ng/mL,−4.98%
same,"Stability RE (%), Room temperature",[1]; 0.3 ng/mL,7.47%
same,"Stability RE (%), 4°C",[1]; 40 ng/mL,2.22%
same,"Stability RE (%), Room temperature",[1]; 40 ng/mL,−0.57%
same,"Stability RE (%), 4°C",[1]; 400 ng/mL,−2.90%
same,"Stability RE (%), Room temperature",[1]; 400 ng/mL,2.63%
same,Stability in rat plasma,[1],remain stable
same,Main metabolizing enzyme,"CYP3A4; in vitro experiments, to N-demethylated metabolite AST-5902",metabolized mainly by CYP3A4
same,Relation to CYP3A4,CYP3A4; previous studies,both a substrate and an inducer of CYP3A4
same,AUC(0-inf),[2]; [8],367 ± 89.7 ng·h/mL
same,AUC(0-t),[2]; [8],270 ± 28.4 ng·h/mL
same,Cmax,[2]; [8],13.5 ± 4.43 ng/mL
same,Tmax,[2]; [8],6.33 ± 1.97 h
same,half-life,[2]; [8],2380 ± 2140 min
same,CL/F,[2]; [8],341 mL/min/kg
same,MRT last,[2]; [8],24.5 ± 2.43 h
same,MRT inf,[2]; [8],61.8 ± 44.7 h
same,Vd/F,[2]; [8],1010 L/kg
same,AUC(0-inf),[2]; [9],486 ± 103 ng·h/mL
same,AUC(0-t),[2]; [9],456 ± 125 ng·h/mL
same,Cmax,[2]; [9],27 ± 9.75 ng/mL
same,Tmax,[2]; [9],6 ± 2.19 h
same,half-life,[2]; [9],973 ± 406 min
same,CL/F,[2]; [9],256 mL/min/kg
same,MRT last,[2]; [9],19.2 ± 2.34 h
same,MRT inf,[2]; [9],28.4 ± 6.88 h
same,Vd/F,[2]; [9],374 ± 209 L/kg
same,AUC(0-inf),[2]; [10],458 ± 46 ng·h/mL
same,AUC(0-t),[2]; [10],421 ± 21.4 ng·h/mL
same,Cmax,[2]; [10],27.9 ± 4.22 ng/mL
same,Tmax,[2]; [10],5 ± 1.1 h
same,half-life,[2]; [10],1070 ± 355 min
same,CL/F,[2]; [10],264 mL/min/kg
same,MRT last,[2]; [10],19.6 ± 2.48 h
same,MRT inf,[2]; [10],30.3 ± 5.96 h
same,Vd/F,[2]; [10],400 ± 95.8 L/kg
same,Difference in main pharmacokinetic data between single-dose and long-term nirmatrelvir and ritonavir groups,[2]; rats,no significant differences
same,AUC(0-t) of firmonertinib increased by,[2]; [13],1.55 times
same,CLz/F of firmonertinib decreased by,[2]; [13],23%
same,Cmax of firmonertinib increased by,[2]; [13],2.05 times
same,MRT(0-t) of firmonertinib decreased by,[2]; [13],20%
same,MRT(0-∞) of firmonertinib decreased by,[2]; [13],51%
same,Vz/F of firmonertinib decreased by,[2]; [13],61%
same,t1/2 of firmonertinib decreased by,[2]; [13],55%
same,AUC(0-t) of firmonertinib increased by,[2]; [12],1.68 times
same,CLz/F of firmonertinib decreased by,[2]; [12],26%
same,Cmax of firmonertinib increased by,[2]; [12],1.99 times
same,MRT(0-t) of firmonertinib decreased by,[2]; [12],22%
same,MRT(0-∞) of firmonertinib decreased by,[2]; [12],55%
same,Vz/F of firmonertinib decreased by,[2]; [12],64%
same,t1/2 of firmonertinib decreased by,[2]; [12],60%
same,Exposure of firmonertinib on co-administration with rifampicin,[4],significantly reduced
same,Exposure of firmonertinib on co-administration with itraconazole,[5],significantly increases
COc1ccc2c3c1O[C@H]1C(=O)CC[C@@]4(O)[C@@H](C2)N(C)CC[C@]314 [oxycodone],AUC of oxycodone when administered simultaneously with ritonavir,[6],triples
C=CC[C@@H]1/C=C(\C)C[C@H](C)C[C@H](OC)[C@H]2O[C@@](O)(C(=O)C(=O)N3CCCC[C@H]3C(=O)O[C@H](/C(C)=C/[C@@H]3CC[C@@H](O)[C@H](OC)C3)[C@H](C)[C@@H](O)CC1=O)[C@H](C)C[C@@H]2OC [tacrolimus],Concentration of tacrolimus during Paxlovid treatment,[7],increase significantly

# From paper PMC12104055 (Frontiers in Pharmacology, 2025)
